Data: patent publication US4002674A (priority 1974, dated 1977)
Structures can show the parent of a compound that is named as a salt.

What was measured:
[1] = tested on: Newcastle disease virus (NDV); assay: microbe, parasite or virus in culture; format: cell-based, Newcastle disease virus; chick embryo tissue culture; details: for inhibition at 4 µg/mL / inhibition at 8 µg/mL / inhibition at 16 µg/mL: avian paramyxovirus 1, in Gallus gallus, 48 h, read-out: % Inhibition of NDV Multiplications
[2] = antiviral activity in vivo; details: no test details given

Compound	inhibition at 4 µg/mL [1] [%]	inhibition at 8 µg/mL [1] [%]	inhibition at 16 µg/mL [1] [%]	antiviral activity compared with amantadine hydrochloride ([1]; in vitro, NDV, versus amantadine hydrochloride)	virus replication in the tissue culture ([1]; tissue culture containing above 4 μg/ml)	antiviral activity in vivo [2]
COC(=O)C12CCCC3CC(CCC31)C2 (stereo not drawn) [VI, Methyl 4-homoisotwistane-3-carboxylate]	0	91.2	99.4	extremely superior	almost completely inhibited	potent antiviral activity in vivo
NC12CC3CC(CC(C3)C1)C2 [Amantadine . HCl, amantadine hydrochloride, reference compound]	0	0	0			
